We go through 51 molecules from PubChem BioAssay AID1996.

Each structure is given as a SMILES string. ≈ marks a conversion by molar mass, not a printed value.

For the series the following is noted: buffer; pH 7.4; 200.0 µM.
A word on the kinetic solubility: it is solubility judged after dilution from a stock solution rather than from solid. Take `NS(=O)(=O)Cc1noc2ccccc12`: the kinetic solubility was > 0.0318 mg/mL.
The figure for `C=CCNc1nc(C(=O)OCC(=O)c2ccc(F)cc2)cs1` is 0.0112 mg/mL (≈ 35 µM); for `Cc1ccc(OCCn2ccnc2)c([N+](=O)[O-])c1` it is 0.0268 mg/mL (≈ 108 µM); for `Cn1cc(Br)c(C(=O)N2CCCCCC2)n1` it is > 0.0429 mg/mL.
Under `Cl.OC(CNCC#Cc1ccccc1)c1ccccc1` (stereo unspecified) stands 0.0359 mg/mL; under `O=C(Oc1ccccc1)c1cccnc1Oc1ccccc1`, 0.0207 mg/mL (≈ 71.1 µM).
The figure for `O=C(CCCOC(=O)c1cccnc1Cl)c1ccc(Br)cc1` is 0.0066 mg/mL (≈ 17.2 µM); for `CN(CC(=O)Nc1c(F)cccc1F)Cc1cccs1` it is > 0.0445 mg/mL.
`COCc1cc(OC)nc(-c2csc(C)n2)n1` came in with a solubility (kinetic) of 0.0325 mg/mL (≈ 129 µM).
As for `CCN1CCN(CC(=O)N2c3ccccc3Sc3ccccc32)CC1`, the solubility (kinetic) is > 0.053 mg/mL.
As to `O=C(Nc1cccc(Cl)c1)c1cnc[nH]1`, the kinetic solubility was > 0.0332 mg/mL.
The figure for `Cc1ccccc1CC(=O)N1CCOCC1` is > 0.0329 mg/mL.
Under `COc1ccccc1CNc1ncccn1.O=C(O)C(=O)O` stands 0.0344 mg/mL; under `Cc1cc(=O)oc2cc(OCC(=O)OC(C)C(=O)Nc3ccc(S(N)(=O)=O)cc3)ccc12` (stereo unspecified), > 0.0691 mg/mL.
The figure for `O=C(c1ccccn1)N1CCN(c2cccc(C(F)(F)F)c2)CC1` is > 0.0503 mg/mL; for `COc1ccc(NC(=O)CCN2CCOCC2)c(OC)c1` it is > 0.0442 mg/mL.
On to `COc1ccc(-c2csc(N(C)C(=O)c3ccco3)n2)cc1`, for which the kinetic solubility is < 0.0003 mg/mL.
The figure for `CCOC(=O)c1c(C)[nH]c(C)c1C(=O)COC(=O)CSc1ccc(C)cc1` is > 0.0584 mg/mL.
As to `COc1ccccc1CC(=O)Nc1cc(C)ccn1`, the kinetic solubility is > 0.0384 mg/mL.
Under `COc1ccc2cc3cc(C(=O)NCCC(C)C)oc3nc2c1` stands < 0.0003 mg/mL; under `COc1ccc(/C=C\c2nc(O)c([N+](=O)[O-])c(=O)[nH]2)cc1O`, > 0.0458 mg/mL.
The figure for `CCNC(=O)C1CCCN(c2nc(C)cc(C)n2)C1` (stereo unspecified) is > 0.0394 mg/mL.
The figure for `Cc1ccc(S(=O)(=O)NCCNC(=O)CN2CCOCC2)cc1` is 0.0488 mg/mL (≈ 143 µM); for `O=C(OCC(=O)N1CCCc2ccccc21)c1ccccc1OC(F)F` it is 0.0297 mg/mL (≈ 82.2 µM).
In the case of `COc1ccc(C)cc1NC(=S)NN1CCN(C)CC1`, the solubility (kinetic) was > 0.0442 mg/mL.
Consider `CCOC(=O)Cc1csc(NC(=O)c2cc(=O)c3ccccc3o2)n1`, for which the solubility (kinetic) came out at 0.0518 mg/mL (≈ 145 µM).
Under `Cc1cc(C)n2c(=O)c3ccc(Cl)cc3nc2c1C#N` stands 0.0013 mg/mL (≈ 4.58 µM); under `CCOC(=O)c1cccc(NC(=O)CC2Oc3ccccc3NC2=O)c1` (stereo unspecified), 0.0018 mg/mL (≈ 5.08 µM).
The figure for `O=C(NCc1ccc2c(c1)OCO2)C(=O)Nc1ccccc1` is 0.0005 mg/mL (≈ 1.68 µM); for `CC1CC(C)CN(C(=O)c2cccc(S(=O)(=O)NCc3ccccc3)c2)C1` (stereo unspecified) it is > 0.058 mg/mL.
Under `CCOC(=O)c1ccc(NS(=O)(=O)c2ccc3oc(=O)[nH]c3c2)cc1` stands > 0.0544 mg/mL; under `Cc1ccc(CN2CCS(=O)(=O)CC2)o1`, > 0.0344 mg/mL; under `O=[N+]([O-])c1cccc(S(=O)(=O)c2cccc([N+](=O)[O-])c2)c1`, 0.0004 mg/mL (≈ 1.3 µM).
Molecule `Cc1c(Cl)cccc1NC(=O)c1cc(-c2ccco2)on1` gave a kinetic solubility of 0.0008 mg/mL (≈ 2.64 µM).
The figure for `O=C(N/C(=C\c1ccc(Cl)cc1)C(=O)N1CCOCC1)c1ccco1` is > 0.0541 mg/mL.
Under `Cc1sc2nc(C)n(/N=C/N(C)C)c(=O)c2c1C` stands > 0.0397 mg/mL.
Under `CC(C)CCC1(C)NC(=O)N(CC(=O)Nc2ccc3c(c2)OCCO3)C1=O` (stereo unspecified) stands 0.0496 mg/mL (≈ 132 µM); under `N/C(=N\OC(=O)Nc1ccccc1)c1ncc([N+](=O)[O-])s1`, 0.0038 mg/mL (≈ 12.4 µM).
Regarding `C=CCN=C1S/C(=C/c2ccc([N+](=O)[O-])cc2)C(=O)N1CC=C`, the solubility (kinetic) was < 0.0002 mg/mL.
With `CN1CCC(N(C)C(=O)c2ccc(Cl)c(S(=O)(=O)N(C)c3ccc(Cl)cc3)c2)CC1`, the kinetic solubility was > 0.0706 mg/mL.
The figure for `O=S(=O)(c1ccc(=S)[nH]c1)N1CCCCC1` is 0.0219 mg/mL (≈ 84.8 µM); for `NC(=O)COC(=O)c1ccc(-c2ccccc2)cc1` it is 0.0191 mg/mL (≈ 74.8 µM); for `COc1ccc2c(c1)nc(CN1CCN(CCO)CC1)n2C` it is > 0.0457 mg/mL.
Under `O=C(CN1C(=O)NC2(CCCC2)C1=O)NCCc1ccccc1` stands 0.0448 mg/mL (≈ 142 µM); under `COc1ccccc1NC(=S)NC1CCCC1`, 0.0359 mg/mL (≈ 143 µM); under `Cc1cc(N2CCOCC2)nc(C(C)C)n1`, 0.0324 mg/mL (≈ 146 µM).
The figure for `O=C(Nc1ccccc1)Nc1ccccc1C(=O)NCCCN1CCOCC1` is 0.0463 mg/mL (≈ 121 µM); for `COc1ccc(N2CCOCC2)c(NC(=O)c2cc3ccccc3o2)c1` it is < 0.0004 mg/mL.
In the case of `Cc1cc(C)cc(NC(=O)CC2Oc3ccc(C)cc3NC2=O)c1` (stereo unspecified), the kinetic solubility amounted to 0.0016 mg/mL (≈ 4.93 µM).
The figure for `CC(=O)c1cccc(NC(=O)CN2C(=O)c3ccccc3C2=O)c1` is 0.0139 mg/mL (≈ 43.1 µM); for `Cc1cc(OCC(=O)NC2CCN(C)CC2)ccc1[N+](=O)[O-]` it is > 0.0461 mg/mL.
